The structures appear in SMILES notation.

human Caf1/CNOT7, sequence (Q9UIV1 whole entry): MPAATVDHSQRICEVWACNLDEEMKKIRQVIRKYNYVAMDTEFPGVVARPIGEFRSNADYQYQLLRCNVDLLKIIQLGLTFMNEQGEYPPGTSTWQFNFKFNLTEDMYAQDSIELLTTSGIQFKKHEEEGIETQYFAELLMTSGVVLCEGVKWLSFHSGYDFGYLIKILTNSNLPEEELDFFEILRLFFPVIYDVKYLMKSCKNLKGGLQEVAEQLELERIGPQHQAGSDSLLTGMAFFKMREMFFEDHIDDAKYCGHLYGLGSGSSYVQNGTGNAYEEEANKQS

This assay has as its target human Caf1/CNOT7 (Homo sapiens, UniProt Q9UIV1). The assay is described as follows: Fluorescence-based Caf1/CNOT7 nuclease activity assay (Flc-RNA substrate, TAMRA-labelled DNA probe). The class given is biochemical. The note with it: mean ± standard deviation; 0.4 μM Caf1/CNOT7, 0.1 μM Flc-RNA substrate, 15 min preincubation, 60 min at 30 °C. How it is done: Compounds (10 mM in DMSO) were stored in a dry, inert environment at −20 °C in an automated sample management system (comPOUND, TTP Labtech Technology, Melbourn, UK). After dispensing aliquots in 96-well plates, compounds were diluted to 0.5 mM in 20% DMSO/water. Aliquots ([…]; […]) were transferred to black U-well 384-well plates (Greiner Bio-One, Kremsmünster, Austria) using a multichannel pipette. Subsequent screening was carried out as described before with modifications for use with a Biomek 3000 liquid handler (Beckman Coulter, Brea, CA, USA). First, enzyme (8 μL containing 1.0 μM Caf1/CNOT7, 50 mM Tris–HCl pH 7.9, 125 mM NaCl, 5 mM MgCl2, 25% glycerol, 2.5 mM β-mercaptoethanol) was added. After mixing, the mixture was left at room temperature for 15 min before the addition of RNA substrate (8 μL; 0.25 μM Flc-RNA substrate in H2O). The composition of the final reaction mixture was: 0.4 μM Caf1/CNOT7, 0.1 μM Flc-RNA substrate, 20 mM Tris–HCl pH 7.9, 50 mM NaCl, 2 mM MgCl2, 10% glycerol, 1 mM β-mercaptoethanol, 5% DMSO, and 100 μM library compound. After incubation at 30 °C for 60 min, 20 μL probe mix (5 μM DNA probe, 1% SDS, 20 mM Tris–HCl pH 8.0, 0.5 mM EDTA) was added. Fluorescence was measured using a BioTek Synergy HT plate reader using the following filters: 485 ± 20 nm (excitation) and 528 ± 20 nm (emission). Hits were identified following data analysis in Microsoft Excel. Screening data was visualised using GraphPad Prism (version 10.4.0).
Reaction conditions and fluorescence measurements were as described above and before. Non-linear regression was carried out using GraphPad Prism 5.0. IC50 values were typically determined using three independent experiments, each containing three replicates.
To discover new inhibitors of the Caf1/CNOT7 nuclease subunit of the Ccr4–Not complex, we screened a sub-set of the Nottingham Managed Chemical Compound Collection, which contains over 83,000 synthetic compounds that are commercially available and were selected based on chemical diversity and drug-like properties. A representative sub-set of 10,880 compounds was selected and screened in duplicate in a 384-well plate format (Figure 1A). The library compounds were screened using a fluorescence-based activity assay that was developed previously. Briefly, purified Caf1/CNOT7 enzyme was pre-incubated with library compounds. This was followed by the addition of a 5′ fluorescein-labelled RNA oligonucleotide containing a stretch of nine adenosine residues at the 3′ end that served as substrate for Caf1/CNOT7. After incubation, the reaction was terminated and a 3′ TAMRA-labelled DNA probe complementary to the substrate was added. […] However, in case Caf1/CNOT7 was inhibited, the substrate remained intact, resulting in annealing of the DNA probe and quenching of fluorescence due to the close vicinity of the fluorescein and TAMRA fluorophores (Figure 1B).
Figure 3 Determination of the IC50 values of small-molecule inhibitors of Caf1/CNOT7. Compounds were preincubated with Caf1/CNOT7 for 15 min at room temperature, followed by the addition of RNA substrate. After incubation (60 min at 30 °C), reactions were stopped by the addition of SDS and a 5-fold molar excess of DNA probe. The mean values for each independent experiment were plotted (Open square, experiment 1; closed circle, experiment 2; diamond, experiment 3).
A word on the IC50: it is the concentration that inhibits the measured activity by half. Turning to `Cc1cc(NC(=O)NC2(C(F)(F)F)Oc3ccc(Cl)cc3O2)no1` (centres unmarked) [Compound 4], the IC50 was 16.8 ± 2.1 µM.
Consider `CC(NC(=O)c1ccoc1)C(=O)Nc1cc(-c2cc(Cl)cc(Cl)c2)[nH]n1` (centres unmarked) [Compound 6], for which the IC50 was 19.7 ± 2.5 µM.
In the case of `O=C(Nc1cc(Br)cnc1O)c1ccc2ccccc2c1` [Compound 20] it was 256 ± 20.4 µM; in that of `Cc1sc2nc(COC(=O)Cn3cc(C(F)(F)F)ccc3=O)nc(N)c2c1C` [Compound 16], 122 ± 10.7 µM; in that of `N#Cc1cccc(NC(=O)C(C#N)c2nc3ccccc3s2)c1` (centres unmarked) [Compound 9], 18.4 ± 5.9 µM.
As to `O=C(Nc1nc(-c2ccc(Cl)s2)cs1)c1ccc(O)nc1` [Compound 19], the IC50 is 161 ± 13.7 µM.
Take `CC(C)c1ccc(-c2nnn(CC(=O)NC(=O)NCc3ccccc3)n2)cc1` [Compound 7]: the IC50 is 17.4 ± 2.7 µM.
Take `O=C(COC(=O)Cc1ccc(-c2ccccc2)cc1)NC(=O)c1cccs1` [Compound 21]: the IC50 was found to be 78.3 ± 9.5 µM.
As to `CCOC(=O)Cc1ncccc1C(=O)Nc1ccc(Br)c(C(F)(F)F)c1` [Compound 18], the IC50 is 57.3 ± 10.1 µM.
The same measure for `N#Cc1cc(C#N)c(SCc2nnc(-c3cccs3)o2)nc1N` [Compound 12]: 21.3 ± 4.6 µM.
In the case of `Cc1ccc2nc(NC(=O)c3cc(Br)c[nH]3)sc2c1` [Compound 1] it was 17.8 ± 0.1 µM.
The same measure for `Cc1ccc(CN(Cc2ccc(C)n2C)C(=O)COc2ccccc2C#N)n1C` [Compound 15]: 24.4 ± 9.2 µM; for `Cc1cccc2sc(NC(=O)CCC(=O)c3ccc(F)cc3)nc12` [Compound 8]: 18.9 ± 4.3 µM.
For the compound `O=C(Cc1c[nH]c2ccccc12)OCc1ccc(F)cc1Cl` [Compound 5], the IC50 was determined as 17.5 ± 4.2 µM.
In the case of `CC(C)CCn1c(SCC(=O)NC(N)=O)nc2cc(Cl)ccc2c1=O` [Compound 11] it was 15.6 ± 3.2 µM.
The same measure for `CC(C)NC(=O)Nc1cccc(C(=O)Nc2ccc3oc(C(F)(F)F)nc3c2)c1` [Compound 13]: 14.5 ± 10.7 µM.
As for `CC(=O)c1c(C)[nH]c(C(=O)Nc2nnc(Cc3ccccc3)s2)c1C` [Compound 3], the IC50 worked out at 20.7 ± 0.9 µM.
In the case of `Cc1ccc(NC(=O)c2c[nH]nc2-c2ccc(Cl)cc2)nc1` [Compound 2] it was 19.5 ± 3.4 µM; in that of `O=S(=O)(Nc1ccc(SC(F)F)cc1)c1cnn(-c2ccccc2)c1` [Compound 17], 77.7 ± 0.3 µM; in that of `CC(=O)Nc1cccc(NC2=NN=C(c3cc(C)[nH]c3C)CS2)c1` [Compound 10], 17.3 ± 1.1 µM.

Source of the values: paper PMC12650180, “Discovery of Drug-like Inhibitors of the Human Caf1/CNOT7 poly(A)-Selective Nuclease Using Compound Screening” (Biomolecules, 2025).
